Results from publication PMC4258349 (International Journal of Medicinal Chemistry, 2014).
≈ marks a conversion by molar mass, not a printed value. Read-outs that look alike come from different tables or passages of the source.

Tests used:
Escherichia coli [1] = test: microbe, parasite or virus in culture; type: cell-based; details: read-out: Minimum inhibitory concentration (MIC)
[2] = Relative acid stability (spectrophotometric absorbance); type: physicochemical; details: 0.1 mg/mL solution, at λ-max
Shigella spp. [3] = test: microbe, parasite or virus in culture; type: cell-based; details: 24 h, read-out: Inhibition zone diameter
[4] = Relative thermal stability (spectrophotometric absorbance); type: physicochemical; details: 0.1 mg/mL solution, 24 hours, at λ-max
Protocol: (§1) The relative thermal and acid stabilities of the complexes were determined spectrometrically. Dilute solutions (0.1 mg/mL) were prepared, their absorption spectra were generated, and the λ-max in each case was noted. The solution of each complex was divided into seven equal portions and the temperature regulated to 20°C, 30°C, 40°C, 50°C, 60°C, 70°C, and 80°C, respectively, for a period of 24 hours. The absorbance in each case was then measured. Similarly, the same concentration of these solutions was prepared at the pH range of 1–6 and the absorbance was measured. These changes in absorbance with temperature and pH, assuming that Beer-Lambert's law is obeyed, are a measure of the stability of the complexes.

Salmonella typhi [5] = test: Minimum inhibitory concentration (dilutions, plot of IZD^2 against log concentration); type: cell-based; details: Salmonella enterica, read-out: Minimum inhibitory concentration (MIC)
Staphylococcus aureus [6] = test: microbe, parasite or virus in culture; type: cell-based; details: read-out: Minimum inhibitory concentration (MIC)
Bacillus subtilis [7] = test: microbe, parasite or virus in culture; type: cell-based; details: read-out: Minimum inhibitory concentration (MIC)
Pseudomonas aeruginosa [8] = test: microbe, parasite or virus in culture; type: cell-based; details: read-out: Minimum inhibitory concentration (MIC)
Shigella spp. [9] = test: microbe, parasite or virus in culture; type: cell-based; details: read-out: Minimum inhibitory concentration (MIC)
[10] = Relative acid stability (spectrophotometric absorbance); type: physicochemical; details: 0.1 mg/mL solution, at λ-max; remark: listed apart in the source
Protocol: as §1
The changes in absorbance with pH are a measure of the acid stability of the compounds.

[11] = Protocol: Saturated solution (10 mL) of each of the complexes and ligands at ambient temperature (28°C) was evaporated to dryness in an evaporating dish. The mass of the solid left in each case was determined. The solubilities were calculated using the relation: (1) S=mass/volume×1000. The solubilities of the complexes were compared with those of the ligands.
The solubilities were determined at 28°C.

Staphylococcus aureus [12] = test: microbe, parasite or virus in culture; type: cell-based; details: read-out: Inhibition zone diameter
Aspergillus niger [13] = test: microbe, parasite or virus in culture; type: cell-based; details: read-out: Minimum inhibitory concentration (MIC)
Escherichia coli [14] = test: microbe, parasite or virus in culture; type: cell-based; details: read-out: Inhibition zone diameter
Bacillus subtilis [15] = test: microbe, parasite or virus in culture; type: cell-based; details: read-out: Inhibition zone diameter
Pseudomonas aeruginosa [16] = test: microbe, parasite or virus in culture; type: cell-based; details: read-out: Inhibition zone diameter
Aspergillus niger [17] = test: Agar well diffusion, inhibition zone diameter; type: cell-based; details: 48 h, read-out: Inhibition zone diameter
Salmonella typhi [18] = test: Agar well diffusion, inhibition zone diameter; type: cell-based; details: Salmonella enterica, 24 h, read-out: Inhibition zone diameter

Structure (SMILES)	Absorbance at pH 7 [2]	zone of inhibition at 5000 µg/mL (Shigella spp. [3]) [mm]	Absorbance at 20°C [4]	Absorbance at 30°C [4]	Absorbance at 40°C [4]	Absorbance at 50°C [4]	Absorbance at 60°C [4]	Absorbance at 70°C [4]	Absorbance at 80°C [4]	MIC (Salmonella typhi [5]) [µg/mL]	MIC (Shigella spp. [9]) [µg/mL]	Absorbance at pH 1 [10]	Absorbance at pH 2 [10]	Absorbance at pH 3 [10]	Absorbance at pH 4 [10]	Absorbance at pH 5 [10]	Absorbance at pH 6 [10]	zone of inhibition at 5000 µg/mL (Aspergillus niger [17]) [mm]	zone of inhibition at 5000 µg/mL (Salmonella typhi [18]) [mm]	other results
Cc1onc(-c2ccccc2Cl)c1C(=O)N[C@@H]1C(=O)N2[C@@H]1SC(C)(C)[C@@H]2C(=O)O [Cloxacillin]	0.722	30	0.721	0.727	0.683	0.455	0.337	0.190	0.184	14.5 (≈ 33.3 µM)	12.5 (≈ 28.7 µM)	0.437	0.449	0.550	0.554	0.696	0.704	30	27	MIC (Escherichia coli [1]; E. coli clinical isolate): 14.5 µg/mL (≈ 33.3 µM); MIC (Staphylococcus aureus [6]; S. aureus clinical isolate): 12.5 µg/mL (≈ 28.7 µM); MIC (Bacillus subtilis [7]; B. subtilis clinical isolate): 12.5 µg/mL (≈ 28.7 µM); MIC (Pseudomonas aeruginosa [8]; P. aeruginosa clinical isolate): 22 µg/mL (≈ 50.5 µM); Solubility [11]: Negligible; zone of inhibition at 5000 µg/mL (Staphylococcus aureus [12]; S. aureus clinical isolate, 5 mg/mL, 32°C 24 hours): 31.5 mm; MIC (Aspergillus niger [13]; A. niger clinical isolate): 14.5 µg/mL (≈ 33.3 µM); zone of inhibition at 5000 µg/mL (Escherichia coli [14]; E. coli clinical isolate, 5 mg/mL, 32°C 24 hours): 28 mm; zone of inhibition at 5000 µg/mL (Bacillus subtilis [15]; B. subtilis clinical isolate, 5 mg/mL, 32°C 24 hours): 32 mm; zone of inhibition at 5000 µg/mL (Pseudomonas aeruginosa [16]; P. aeruginosa clinical isolate, 5 mg/mL, 32°C 24 hours): 20 mm
CC1(C)S[C@@H]2[C@H](NC(=O)[C@H](N)c3ccc(O)cc3)C(=O)N2[C@H]1C(=O)O [Amoxicillin]	0.664	30	0.661	0.664	0.643	0.428	0.369	0.312	0.126	11 (≈ 30.1 µM)	11 (≈ 30.1 µM)	0.387	0.404	0.499	0.511	0.603	0.620	35	35.5	MIC (Escherichia coli [1]): 12.5 µg/mL (≈ 34.2 µM); MIC (Staphylococcus aureus [6]): 12.5 µg/mL (≈ 34.2 µM); MIC (Bacillus subtilis [7]): 12.5 µg/mL (≈ 34.2 µM); MIC (Pseudomonas aeruginosa [8]): 14 µg/mL (≈ 38.3 µM); zone of inhibition at 5000 µg/mL (Staphylococcus aureus [12]; 24 h): 30 mm; MIC (Aspergillus niger [13]): 15 µg/mL (≈ 41 µM); zone of inhibition at 5000 µg/mL (Escherichia coli [14]; 24 h): 33 mm; zone of inhibition at 5000 µg/mL (Bacillus subtilis [15]; 24 h): 30 mm; zone of inhibition at 5000 µg/mL (Pseudomonas aeruginosa [16]; 24 h): 28 mm
